Assays:
Assay type in all cases: in vitro ADME
Plasma protein [1] = assay: plasma protein binding, Rapid Equilibrium Dialysis (RED), mouse; conditions: 5 µM, 4h at 37°C, (*) low recovery for (If)
Protocol: (§1) Plasma from Seralab was employed in the assay and was carried out by employing Rapid Equilibrium Dialysis (RED) from Thermo Scientific.
(§2) The compounds were dissolved at 5 µM in plasma and added to the corresponding insert of the RED device. Dialysis buffer was added to the corresponding insert of the RED device. Plate was incubated for 4h at 37°C.
(§3) After the incubation period 50 µL aliquots of each chamber were transferred to empty vials. 50 µL of dialysis buffer were added to the plasma samples and 50 µL of plasma were added to the buffer samples. 300 µL of acetonitrile were added to all the samples and centrifuged at 4000 rpm 100 µL aliquots of the supernatants were transferred to a LC analysis plate. Samples were analyzed in a UPLC/MS/MS. Stationary phase: Acquity UPLC® BEHC18 1,7 µm (2.1 mm x 50 mm) (Waters). Gradient: A (H2O + 0.1% Formic acid); B (ACN + 0.1% Formic acid); Flow: 0.6mL/min Table 8: UPLC gradient / Protein binding assay
(§4) The chromatographic equipment employed was an ACQUITY UPLC / Xevo TQD System. Compound concentrations were calculated from the MS peak areas. Table 9: Plasma protein binding of the compounds of formula (I) in rat, mice, dogs and humans / (*) low recovery

[2] = as above; conditions: 4h at 37°C, (*) low recovery for (If)
Protocol: as §1, §2, §3, §4

[3] = plasmatic stability, rat plasma; conditions: for Plasmatic stability: Rat plasma
Protocol: Rat, human, mouse and dog plasma pooled from healthy donors extracted in citrate tubes was employed in the assay.
[…] Then 300µl Acetonitrile were added for precipitating plasma protein, and the plate was centrifuged at 4000 g for 60 min at 4°C.
Supernatant was taken and analyzed by UPLC/MS/MS for sample quantification. Stationary phase: Reverse phase ACQUITY BEH C18 1.7µm 2.1x50mm (Waters) Mobile phase: 0.1% Formic acid water/0.1% formic acid in acetonitrile Gradient: Table 4: UPLC gradient / Plasmatic stability assay
The chromatographic equipment employed was an UPLC QSM Waters Acquity. Compound concentrations were calculated from the MS peak areas.

Plasma protein [4] = assay: plasma protein binding, Rapid Equilibrium Dialysis (RED), dog; conditions: 5 µM, 4h at 37°C
Protocol: as §1, §2, §3, §4

[5] = as above; conditions: 4h at 37°C
Protocol: as §1, §2, §3, §4

Work on O=C(Cc1ccc2c(c1)OCCO2)Nc1nc(-c2ccc3c(c2)CCC(=O)N3)cs1 [Compound (If)] yielded an Unbound fraction (Plasma protein [1]) of 0.46%, a fraction unbound at 4 h, 5 µM [2] of 0.0046 and a Plasmatic stability ([3]; 10µM, t 0 min) of 100.0. The Plasmatic stability ([3]; 10µM, t 60 min) was 105.5, the Plasmatic stability ([3]; 10µM, t 120 min) was 105.4 and the Plasmatic stability ([3]; 10µM, t 360 min) was 81.6. The Plasmatic stability ([3]; 100µM, t 0 min) was 100.0, the Plasmatic stability ([3]; 100µM, t 60 min) was 88.8 and the Plasmatic stability ([3]; 100µM, t 120 min) was 95.1. The Plasmatic stability ([3]; 100µM, t 360 min) was 65.7, the “plasmatic stability (in words)” value ([3]; rats) was “high plasmatic stability” and the Unbound fraction (Plasma protein [4]) was 0.15%. The fraction unbound at 4 h, 5 µM [5] was 0.0015.
